Test results as given in patent US20210186879A1, “TARGETED DELIVERY OF HYDROPHILIC DRUGS TO LUNG” (DOUBLE BOND PHARMACEUTICALS AB, priority 2016, published 2021).

Experiments:
[1] = In vivo distribution of doxorubicin in lung and femoral muscle of Californian rabbits; settings: 4 hours; for Femoral muscle DOX / Lung tissue DOX: 1.25 mg/kg i.v. marginal ear vein, ± SD; for Femoral muscle Relative difference / Lung tissue Relative difference: relative to control CI-DOX (1)
Method: (§1) For in vivo investigation both rats and rabbits were used: female Wistar rats 60-75 days old weighing 300 g±30 g and Californian breed male rabbits 75-90 days old weighing 2000 g±250 g were selected. […] Different doxorubicin containing formulations with a total doxorubicin dose 5 mg/kg were administered via a single bolus injection into the tail for rats and via a slow flow of 1 ml/min in the marginal ear vein for rabbits.
(§2) Five or six pieces of lung tissue of a total weight of about 1 g were taken from different parts of a lung. The samples were homogenized with a solution of aqueous ethanol containing HCl for 20 s at 7000 rpm and for 10 s at 11000 rpm. […] Doxorubicin and doxycycline (DOC) concentration in the final supernatant was determined with fluorometric analysis and high-performance liquid chromatography respectively.
Suspension of complexes of doxorubicin and doxorubicin hydrochloride were administered via a slow flow of 1 ml/min to rabbits in the marginal ear vein with a total doxorubicin dose 1.25 mg/kg. Animals were sacrificed after 4 hours after administration. Concentration of doxorubicin in lung and femoral muscle was determined in accordance to the procedure described above. As it is seen from table 8 the concentration of doxorubicin in femoral muscle as a representation of a system concentration is not increased for complexes compared with doxorubicin hydrochloride.

[2] = In vivo distribution of doxorubicin in lung and blood serum of Wistar rats; settings: 4 hours; for Blood serum DOX / Lung tissue DOX: 5 mg/kg i.v. single bolus, ± SD; for Blood serum Relative difference / Lung tissue Relative difference: relative to control CI-DOX (1)
Method: as §1, §2
An aqueous solution of doxorubicin hydrochloride, an aqueous suspension of doxorubicin alkane sulfate and an aqueous suspension of doxorubicin alkyl sulfonate were administered via a single bolus injection into the tail Animals were sacrificed after 4 hours after administered via a single bolus injection into the tail; total doxorubicin dose 5 mg/kg. […] The results are summarized in Table 7 and illustrated in FIG. 10.

[3] = rat, in vivo, iv, 5 mg/kg
[4] = Solubility in aqueous ethanol (UV method); format: physicochemical; settings: for Solubility in 30% ethanol: doxorubicin salts
Method: The mixture was centrifuged at 3000 rpm for 10 min and the supernatant filtered through a 0.2 micrometer filter to remove aggregates of undissolved solid product. The solubility of the compound was determined by a UV method. Particle size analysis was accomplished by laser diffraction method.

[5] = cited from earlier work

SMILES	Femoral muscle DOX [1]	Lung tissue DOX [1]	Blood serum DOX [2]	Lung tissue DOX [2]	Femoral muscle Relative difference [1]	Lung tissue Relative difference [1]	Blood serum Relative difference [2]	Lung tissue Relative difference [2]	Particle size particularly advantageous in targeting lung tissue [3]	Solubility ([4]; doxorubicin alkyl sulfates and alkane sulfonates, 30% ethanol (v/v))	Solubility in 30% ethanol ([4]; Table 7)	Solubility in 30% ethanol ([4]; Table 8)	Cumulative dose at which the risk of developing cardiac side effects increases dramatically [5]
CCCCCCCCCCCCOS(=O)(=O)O.COc1cccc2c1C(=O)c1c(O)c3c(c(O)c1C2=O)C[C@@](O)(C(=O)CO)C[C@@H]3O[C@H]1C[C@H](N)[C@H](O)[C@H](C)O1 [doxorubicin CnH2n+1OSO3^− n=12]	0.20 ± 0.02 µg/kg	1.61 ± 0.25 µg/kg	0.021 ± 0.007 µg/kg	0.77 ± 0.19 µg/kg									
CCCCCCCCCCCCCCOS(=O)(=O)O.COc1cccc2c1C(=O)c1c(O)c3c(c(O)c1C2=O)CC(O)(C(=O)CO)CC3OC1CC(N)C(O)C(C)O1 (centres unmarked) [doxorubicin CnH2n+1OSO3^− n=14]	0.06 ± 0.01 µg/kg	6.14 ± 0.53 µg/kg	0.023 ± 0.009 µg/kg	3.17 ± 0.33 µg/kg	0.26	7.40	1.21	4.46	40-90 μm				
CCCCCCCCCCCCS(=O)(=O)O.COc1cccc2c1C(=O)c1c(O)c3c(c(O)c1C2=O)CC(O)(C(=O)CO)CC3OC1CC(N)C(O)C(C)O1 (centres unmarked) [doxorubicin CnH2n+1SO3^− n=12]			0.014 ± 0.003 µg/kg	0.88 ± 0.09 µg/kg			0.75	1.24					
CCCCCCCCCCCCCCCCS(=O)(=O)O.COc1cccc2c1C(=O)c1c(O)c3c(c(O)c1C2=O)CC(O)(C(=O)CO)CC3OC1CC(N)C(O)C(C)O1 (centres unmarked) [doxorubicin CnH2n+1SO3^− n=16]	0.12 ± 0.06 µg/kg	10.70 ± 0.77 µg/kg	0.019 ± 0.007 µg/kg	6.11 ± 0.75 µg/kg	0.52	12.89	1.04	8.61		0.01194 mg/mL	0.012	0.0119	
COc1cccc2c1C(=O)c1c(O)c3c(c(O)c1C2=O)C[C@@](O)(C(=O)CO)C[C@@H]3O[C@H]1C[C@H](N)[C@H](O)[C@H](C)O1 [doxorubicin]													≥ 550 mg/m^2
